Measured values from patent US20200069664A1, “METHODS FOR TREATING INFECTION” (Salix Pharmaceuticals, Ltd, priority 2010, published 2020).
“Also recorded” adds a separate entry of the source. Where two headings read alike, the source gives them in different places.

Legend:
EAEC [1] = experiment: Effect of dialyzed supernatants of treated HEp-2 cells on EAEC adherence; format: cell-based, E. coli; details: HEp-2 treated 24 h with 64 mg/ml (so in the source); chambered slides with or without HEp-2 cells, 3 h
Method: Supernatant dialysis. HEp-2 cells were cultured in T-175 flasks as described above. […] After 24 h, the medium was collected, loaded into regenerated cellulose dialysis tubing (cutoff, 6 to 8 kDa; Spectra/Por, Rancho Domiguez, Calif.), and dialyzed against 4 liters of PBS changed four times. Each dialysis step lasted at least 6 h and was carried out at 4° C. Dialyzed supernatants were either used immediately in adherence assays or stored at −20° C. until use.
The effect of supernatants on EAEC adherence was determined by mixing EAEC with the dialyzed media from the different antibiotic (or control) treatment groups and adding the bacteria to HEp-2 cells cultured in chambered slides or to chambered slides with no HEp-2 cells. Adherence was visualized microscopically as described above.

[2] = oral administration, healthy volunteers (Descombe et al. 1994); cited from earlier work
EAEC isolates [3] = experiment: MMP-9 detection by gelatin zymography in EAEC isolates after rifaximin exposure; format: cell-based, E coli
Method: (§1) Expression of matrix metalloproteinase-9 (MMP-9) was analyzed using gelatin zymography in all viable EAEC and S. sonnei isolates growing on MacConkey agar. Isolates were suspended in 1 mL of 0.1 M phosphate buffered saline (pH 7.2) and centrifuged at 1000 g for 10 minutes at 4° C. The supernatant was subjected to gelatin zymography to detect MMP-9 activity using a modified Heussen and Dowdle protocol (9). In summary, the supernatant was diluted 1:2 in a sample buffer (125 mM Tris-HCl, pH 6.8, 20% glycerol, 4% sodium dodecyl sulfate, 0.02% bromphenol blue), and 20 μL was loaded on to a 10% SDS-PAGE gel containing 1 mg/mL gelatin. Prestained standard proteins were used as molecular weight markers. After electrophoresis, gels were rinsed with incubation buffer (2.5% triton X-100, 50 mM Tris-HCl, pH 7.4, 0.02% Brij 35, 10 mM CaCl2, 2 μM ZnCl2) for 1 hour at room temperature to remove SDS. Gels were then incubated overnight at 37° C. and subsequently stained with Coomassie brilliant blue R-250 (Thermo Fisher Scientific, Inc, Rockford, Ill.). […] Matrix metalloproteinase-9 was identified among all gelatinolytic proteins by size.

EAEC strains = experiment: HCT-8 cell culture assay for IL-8 release after infection with rifaximin-exposed EAEC; format: cell-based, E coli
Method: The human intestinal adenocarcinoma cell line, HCT-8, was used to study inflammatory modulators as previously published (Huang, 2004 #15). Monolayers of HCT-8 cells (ATCC CCL-244; American Type Culture Collection, Rockville, Md.) were grown in 24-well culture plates (Corning Costar, Corning, N.Y.) in an RPMI 1640 medium (Sigma-Aldrich Co, St Louis, Mo.) supplemented with 100 U/mL of penicillin, 100 μg/mL of streptomycin, and 0.25 μg/mL of amphotericin B. They were maintained in a medium supplemented with 10% fetal bovine serum (HyClone, Logan, Utah) and grown until approximately 4×10^5 cells/well confluence.
HCT-8 cells were infected with EAEC strains recovered from MacConkey agar in triplicate at a 100:1 ratio in an antibiotic- and serum-free RPMI 1640 medium. Cells were incubated for 3 hours in a humidified chamber at 37° C. in an atmosphere containing 5% CO2, after which supernatants were collected. The supernatant concentration of IL-8 in each well was determined by using a commercially available enzyme-linked immunosorbent assay kit for human IL-8 (R&D Systems, Minneapolis, Minn.). All samples were tested twice, and the average value was reported.

HEp-2 cells = experiment: Cytokine array of supernatants of treated HEp-2 cells; details: 64 μg/ml, 24 h; Panomics array of 36 cytokines
S. sonnei = S. sonnei adherence and internalization in antibiotic-pretreated HeLa cells; format: cell-based; details: vs other treatment groups
C difficile isolates [4] = details: 201 C difficile isolates, Canada, cited from earlier work
EAEC strain O42 = format: cell-based, E. coli
[5] = tested on: enteroaggregative E coli strains; experiment: MIC against rifaximin by agar dilution, EAEC isolates; format: cell-based; details: 2 EAEC isolates
Description: (§2) Five enterotoxigenic E coli strains, 2 enteroaggregative E coli strains, and 1 S sonnei isolate were included in the study. The isolates had been identified previously from patients with TD acquired in Guadalajara, Mexico, during the summer of 2004 (5).

[6] = tested on: enterotoxigenic E coli strains; experiment: MIC against rifaximin by agar dilution, ETEC isolates; format: cell-based
Description: as §2

S sonnei isolate [7] = experiment: MMP-9 detection by gelatin zymography in S sonnei isolate after rifaximin exposure; format: cell-based
Method: as §1

EAEC [8] = experiment: MIC50 previously established for EAEC; format: cell-based, E. coli; details: previously established in our laboratory
[9] = tested on: B. anthracis Sterne strain 7702; format: cell-based; details: pretreated A549 cells, vs other treatment groups
EAEC isolates [10] = experiment: Isolate viability after rifaximin exposure, EAEC; format: cell-based, E coli
C difficile isolates [11] = experiment: In vitro susceptibility of C difficile isolates (agar dilution for rifaximin, Etest for rifampin)
S sonnei isolate [12] = experiment: MIC against rifaximin by agar dilution, S sonnei isolate; format: cell-based
Description: as §2

[13] = 24 h pretreatment with 64 mg (sic; FIG. 2: 64 μg/ml)
[14] = resistance = MIC≥32 μg/mL, for rifaximin b194 says 'rifaximin alone'

In the case of “(2S,16Z,18E,20S,21S ,22R, 23R,24R,255,265,275,28E)-5,6,21,23,25 Pentahydroxy-27-methoxy-2,4,11,16,20,22,24,26-octamethyl-2,7-(epoxypentadeca-(1,11,13) trienimino) benzofuro (4,5-e) pyrido(1,2,-a) benzimidazole-1,15(2H)-dione,25-acetate [Rifaximin]”, the “Adherence of EAEC mixed with dialyzed supernatants from treated HEp-2 cells” value (EAEC [1]) is listed as “adhered poorly; also recorded: affected EAEC adherence”, the Systemic absorption [2] is listed as “negligible” and the “MMP-9 expression by EAEC isolates” value (EAEC isolates [3]; 18-hour time point (rifaximin 8 mg/L)) is listed as “one EAEC isolate produced MMP-9, but the other isolate did not”. For the same substance, the “MMP-9 expression by EAEC isolates” value (EAEC isolates [3]; rifaximin 8 mg/L for 4 and 8 hours) was “expressed MMP-9”, the “MMP-9 expression by EAEC isolates” value (EAEC isolates [3]; rifaximin 8 mg/L for 24 hours) was “undetectable” and the “MMP-9 expression by EAEC isolates” value (EAEC isolates [3]; rifaximin 32 or 64 mg/L for 4, 8, or 18 hours) was “undetectable”. For the same substance, the “IL-8 production from HCT-8 cells elicited by rifaximin-exposed EAEC” value (“IL-8 production” below) (EAEC strains; all other time points and rifaximin concentrations) was “either undetected following HCT-8 infection with EAEC strains, or EAEC strains were not viable”, the “IL-8 production” value (EAEC strains; rifaximin 64 mg/L for 4 hours) was “caused IL-8 production” and the “IL-8 production” value (EAEC strains; rifaximin 8 or 32 mg/L for 4 or 8 hours) was “elicited production of IL-8”. The “IL-8 production” value (EAEC strains; viable isolates, rifaximin 8, 32, or 64 mg/L for 18 hours or 8 mg/L for 24 hours) was “did not elicit IL-8 production”, the “Cytokines detected in supernatants of treated HEp-2 cells” value (HEp-2 cells) was “detectable levels of RANTES and IL-4 only; also recorded: reduced the expression of various proinflammatory cytokines” and the S. sonnei attachment (S. sonnei) was “no effect”. For the same substance, the S. sonnei internalization (S. sonnei) was “no effect”, the MIC50 (C difficile isolates [4]; 1992 to 2007) was 0.008 µg/mL and the MIC90 (C difficile isolates [4]; 1992 to 2007) was 0.015 µg/mL. For the same substance, the “Isolates with MIC values >2 μg/mL” value (C difficile isolates [4]) was 4%, the “EAEC adherence to pretreated HEp-2 cells, quantified by CFU” value (EAEC strain O42) was “significantly lower; also recorded: reduced EAEC adherence” and the “EAEC adherence to A549 cells” value (EAEC strain O42; [13]) was “significantly reduced”. The “EAEC adherence to HCT-8 cells” value (EAEC strain O42; [13]) was “not significant”, the “EAEC adherence to HEp-2 cells” value (EAEC strain O42; [13]) was “significantly reduced” and the “EAEC adherence to HeLa cells” value (EAEC strain O42; [13]) was “significantly reduced”. The “EAEC O42 adherence to pretreated HEp-2 cells (microscopy, stacked-brick pattern)” value (EAEC strain O42; HEp-2 cells pretreated 24 h, washed, EAEC 3 h, Wright-Giemsa staining) was “greatly reduced”, the “EAEC bacterial counts in the supernatants (viability)” value (EAEC strain O42; after 3 h incubation with pretreated HEp-2 cells) was “No differences; also recorded: without affecting EAEC viability” and the MIC [5] was 64 µg/mL. The MIC ([6]; 2 ETEC isolates) was 128 µg/mL, the MIC ([6]; 3 ETEC isolates) was 64 µg/mL and the “MMP-9 in the S sonnei isolate” value (S sonnei isolate [7]; other time points and rifaximin concentrations) was “either undetectable or the isolate was not viable”. For the same substance, the “MMP-9 in the S sonnei isolate” value (S sonnei isolate [7]; rifaximin 8 mg/L for 4 hours) was “detectable”, the “MIC50 for EAEC” value (EAEC [8]) was 64 µg/mL and the “Internalization of B. anthracis” value ([9]; gentamicin protection) was “significant reductions”. For the same substance, the “Adherence of B. anthracis” value [9] was “significant reductions”, the EAEC viability (EAEC isolates [10]; rifaximin 8 mg/L for 24 hours) was “viable” and the EAEC viability (EAEC isolates [10]; rifaximin 8, 32, and 64 mg/L at 4, 8, and 18 hours) was “viable”. The EAEC viability (EAEC isolates [10]; rifaximin 32 and 64 mg/L for 24 hours) was “no viable isolates were recovered; also recorded: not viable”, the MIC50 (C difficile isolates [11]; 359 C difficile isolates) was less than 0.01 µg/mL and the MIC90 (C difficile isolates [11]; 359 C difficile isolates) was 0.25 µg/mL. For the same substance, the MIC50 (C difficile isolates [11]; 359 C difficile isolates, listed as rifaximin) was less than 0.01 µg/mL, the “Isolates resistant to both rifampin and rifaximin, percent of 359” value (C difficile isolates [11]; MIC≥32 μg/mL) was 2% and the “Resistant isolates, number of 359” value (C difficile isolates [11]; [14]) was 11. For the same substance, the “Resistant isolates, percent of 359” value (C difficile isolates [11]; [14]) was 3% and the MIC (S sonnei isolate [12]) was 16 µg/mL.
